Measured values from patent publication US7897582B2, “Oligonucleotide compositions and methods for the modulation of the expression of B7 protein” (Isis Pharmaceuticals, Inc., priority 2003, dated 2011).
Strand notation (5' to 3'): a small letter for the sugar, then the base; units joined by * are phosphorothioate-linked, units joined directly phosphodiester-linked; [ ] holds rarer units or linkages, { } end groups; capitals alone tell only the bases. e = 2'-O-(2-methoxyethyl) (MOE); [5mC] = 5-methylcytosine; d = 2'-deoxy (DNA)

Legend:
Human B7-1 mRNA = Human B7-1 mRNA expression in COS-7 cells, screened as in Example 4; format: cell-based
human B7.2 mRNA = assay: Human B7.2 mRNA levels in THP-1 cells by quantitative real-time PCR (Example 27); format: cell-based; design: concentration or dose not given beside the values
Excerpt: In accordance with the present invention, an additional series of antisense compounds were designed to target different regions of the human B7.2 RNA, using published sequences (GenBank accession number U04343.1, incorporated herein as SEQ ID NO: 295, GenBank accession number BC040261.1, incorporated herein as SEQ ID NO: 296 and GenBank accession number NT—005543.12, a portion of which is incorporated herein as SEQ ID NO: 297). “Target site” indicates the first (5′-most) nucleotide number on the particular target sequence to which the compound binds. All compounds in Table 25 are chimeric oligonucleotides (“gapmers”) 20 nucleotides in length, composed of a central “gap” region consisting of ten 2′-deoxynucleotides, which is flanked on both sides (5′ and 3′ directions) by five-nucleotide “wings”. The wings are composed of 2′-methoxyethyl (2′-MOE)nucleotides. The internucleoside (backbone) linkages are phosphorothioate (P═S) throughout the oligonucleotide. All cytidine residues are 5-methylcytidines. The compounds were analyzed for their effect on human B7.2 mRNA levels in THP-1 cells by quantitative real-time PCR as described in other examples herein. Data are averages from three experiments. If present, “N.D.” indicates “no data”.

Substance | % mRNA EXPRESSION (Human B7-1 mRNA; human B7-1 mRNA, Table 7) [%] | % mRNA INHIBITION (Human B7-1 mRNA; human B7-1 mRNA, Table 7) [%] | % INHIB (inhibition of human B7.2 mRNA levels) (human B7.2 mRNA) [%] | further results
22329 (antisense e[5mC]*e[5mC]*eT*e[5mC]*e[5mC]*dA*dG*dA*dG*dG*dT*dT*dG*dA*dG*e[5mC]*eA*eA*eA*eT) [compound 22329] | 59 | 41 |  | 
22330 (antisense e[5mC]*e[5mC]*eA*eA*e[5mC]*d[5mC]*dA*dG*dG*dA*dG*dA*dG*dG*dT*eG*eA*eG*eG*e[5mC]) [compound 22330] | 54 | 46 |  | 
22331 (antisense eG*eA*eA*eG*e[5mC]*dT*dG*dT*dG*dG*dT*dT*dG*dG*dT*eT*eG*eT*e[5mC]*eA) [compound 22331] | 62 | 38 |  | 
22332 (antisense eT*eT*eG*eA*eA*dG*dG*dT*d[5mC]*dT*dG*dA*dT*dT*d[5mC]*eA*e[5mC]*eT*e[5mC]*eT) [compound 22332] | 67 | 33 |  | 
22333 (antisense eA*eA*eG*eG*eT*dA*dA*dT*dG*dG*d[5mC]*d[5mC]*d[5mC]*dA*dG*eG*eA*eT*eG*eG) [compound 22333] | 73 | 27 |  | 
22336 (antisense eA*eG*e[5mC]*e[5mC]*e[5mC]*d[5mC]*dT*dT*dG*d[5mC]*dT*dT*d[5mC]*dT*dG*e[5mC]*eG*eG*eA*e[5mC]) [compound 22336] | 55 | 45 |  | 
22339 (antisense eG*eT*eA*eA*eA*dA*d[5mC]*dA*dG*d[5mC]*dT*dT*dA*dA*dA*eT*eT*eT*eG*eT) [compound 22339] | 69 | 31 |  | 
22340 (antisense eA*eG*eA*eA*eG*dA*dG*dG*dT*dT*dA*d[5mC]*dA*dT*dT*eA*eA*eG*e[5mC]*eA) [compound 22340] | 71 | 29 |  | 
22341 (antisense eA*eG*eA*eT*eA*dA*dT*dG*dA*dA*dT*dT*dG*dG*d[5mC]*eT*eG*eA*e[5mC]*eA) [compound 22341] | 59 | 41 |  | 
24733 (antisense eG*e[5mC]*eG*eT*e[5mC]*dA*dT*d[5mC]*dA*dT*d[5mC]*d[5mC]*dG*d[5mC]*dA*e[5mC]*e[5mC]*eA*eT*e[5mC]) [compound 24733] |  |  |  | % mRNA EXPRESSION (Human B7-1 mRNA; 10 nM, COS-7, Table 8): 90%; % mRNA INHIBITION (Human B7-1 mRNA; 10 nM, COS-7, Table 8): 10%; % mRNA EXPRESSION (Human B7-1 mRNA; 30 nM, COS-7, Table 8): 91%; % mRNA INHIBITION (Human B7-1 mRNA; 30 nM, COS-7, Table 8): 9%; % mRNA EXPRESSION (Human B7-1 mRNA; 100 nM, COS-7, Table 8): 90%; % mRNA INHIBITION (Human B7-1 mRNA; 100 nM, COS-7, Table 8): 10%; % mRNA EXPRESSION (Human B7-1 mRNA; 300 nM, COS-7, Table 8): 80%; % mRNA INHIBITION (Human B7-1 mRNA; 300 nM, COS-7, Table 8): 20%
24734 (antisense e[5mC]*eG*eT*eT*eG*d[5mC]*dT*dT*dG*dT*dG*d[5mC]*d[5mC]*dG*dA*e[5mC]*eA*eG*eT*eG) [compound 24734] |  |  |  | % mRNA EXPRESSION (Human B7-1 mRNA; 10 nM, COS-7, Table 8): 94%; % mRNA INHIBITION (Human B7-1 mRNA; 10 nM, COS-7, Table 8): 6%; % mRNA EXPRESSION (Human B7-1 mRNA; 30 nM, COS-7, Table 8): 96%; % mRNA INHIBITION (Human B7-1 mRNA; 30 nM, COS-7, Table 8): 4%; % mRNA EXPRESSION (Human B7-1 mRNA; 100 nM, COS-7, Table 8): 94%; % mRNA INHIBITION (Human B7-1 mRNA; 100 nM, COS-7, Table 8): 6%; % mRNA EXPRESSION (Human B7-1 mRNA; 300 nM, COS-7, Table 8): 84%; % mRNA INHIBITION (Human B7-1 mRNA; 300 nM, COS-7, Table 8): 16%
24735 (antisense eG*e[5mC]*eT*e[5mC]*eA*d[5mC]*dG*dA*dA*dG*dA*dA*d[5mC]*dA*d[5mC]*e[5mC]*eT*eT*e[5mC]*e[5mC]) [compound 24735] |  |  |  | % mRNA EXPRESSION (Human B7-1 mRNA; 10 nM, COS-7, Table 8): 100%; % mRNA EXPRESSION (Human B7-1 mRNA; 30 nM, COS-7, Table 8): 95%; % mRNA INHIBITION (Human B7-1 mRNA; 30 nM, COS-7, Table 8): 5%; % mRNA EXPRESSION (Human B7-1 mRNA; 100 nM, COS-7, Table 8): 81%; % mRNA INHIBITION (Human B7-1 mRNA; 100 nM, COS-7, Table 8): 19%; % mRNA EXPRESSION (Human B7-1 mRNA; 300 nM, COS-7, Table 8): 75%; % mRNA INHIBITION (Human B7-1 mRNA; 300 nM, COS-7, Table 8): 25%
323624 (antisense eG*eT*eT*eA*e[5mC]*dT*d[5mC]*dA*dG*dT*d[5mC]*d[5mC]*d[5mC]*dA*dT*eA*eG*eT*eG*e[5mC]) [compound 323624] |  |  | 59 | 
323625 (antisense e[5mC]*eA*eA*eA*eG*dA*dG*dA*dA*dT*dG*dT*dT*dA*d[5mC]*eT*e[5mC]*eA*eG*eT) [compound 323625] |  |  | 21 | 
323626 (antisense e[5mC]*e[5mC]*eA*eT*e[5mC]*dA*d[5mC]*dA*dA*dA*dG*dA*dG*dA*dA*eT*eG*eT*eT*eA) [compound 323626] |  |  | 32 | 
323627 (antisense eG*eG*eA*eA*eG*dG*d[5mC]*d[5mC]*dA*dT*d[5mC]*dA*d[5mC]*dA*dA*eA*eG*eA*eG*eA) [compound 323627] |  |  | 54 | 
323628 (antisense eG*eA*eG*e[5mC]*eA*dG*dG*dA*dA*dG*dG*d[5mC]*d[5mC]*dA*dT*e[5mC]*eA*e[5mC]*eA*eA) [compound 323628] |  |  | 44 | 
323629 (antisense e[5mC]*e[5mC]*eA*eG*eA*dG*dA*dG*d[5mC]*dA*dG*dG*dA*dA*dG*eG*e[5mC]*e[5mC]*eA*eT) [compound 323629] |  |  | 36 | 
323630 (antisense eA*eA*eA*eT*eA*dA*dG*d[5mC]*dT*dT*dG*dA*dA*dT*d[5mC]*eT*eT*e[5mC]*eA*eG) [compound 323630] |  |  | 22 | 
323631 (antisense eA*eG*eT*e[5mC]*eT*d[5mC]*dA*dT*dT*dG*dA*dA*dA*dT*dA*eA*eG*e[5mC]*eT*eT) [compound 323631] |  |  | 56 | 
323632 (antisense eA*eG*eG*eT*e[5mC]*dT*dG*d[5mC]*dA*dG*dT*d[5mC]*dT*d[5mC]*dA*eT*eT*eG*eA*eA) [compound 323632] |  |  | 41 | 
323633 (antisense e[5mC]*eT*eA*e[5mC]*eT*dA*dG*d[5mC]*dT*d[5mC]*dA*d[5mC]*dT*d[5mC]*dA*eG*eG*e[5mC]*eT*eT) [compound 323633] |  |  | 50 | 
323634 (antisense eA*eA*eA*eT*eA*d[5mC]*dT*dA*d[5mC]*dT*dA*dG*d[5mC]*dT*d[5mC]*eA*e[5mC]*eT*e[5mC]*eA) [compound 323634] |  |  | 30 | 
323635 (antisense e[5mC]*eT*eG*e[5mC]*e[5mC]*dA*dA*dA*dA*dT*dA*d[5mC]*dT*dA*d[5mC]*eT*eA*eG*e[5mC]*eT) [compound 323635] |  |  | 24 | 
323636 (antisense eT*eT*e[5mC]*eA*eG*dA*dA*d[5mC]*d[5mC]*dA*dA*dG*dT*dT*dT*eT*e[5mC]*e[5mC]*eT*eG) [compound 323636] |  |  | 23 | 
323637 (antisense e[5mC]*e[5mC]*eT*e[5mC]*eA*dT*dT*d[5mC]*dA*dG*dA*dA*d[5mC]*d[5mC]*dA*eA*eG*eT*eT*eT) [compound 323637] |  |  | 19 | 
323638 (antisense eG*eT*eA*eT*eA*d[5mC]*d[5mC]*dT*d[5mC]*dA*dT*dT*d[5mC]*dA*dG*eA*eA*e[5mC]*e[5mC]*eA) [compound 323638] |  |  | 20 | 
323639 (antisense eG*e[5mC]*e[5mC]*eT*eA*dA*dG*dT*dA*dT*dA*d[5mC]*d[5mC]*dT*d[5mC]*eA*eT*eT*e[5mC]*eA) [compound 323639] |  |  | 55 | 
323640 (antisense e[5mC]*eT*e[5mC]*eT*eT*dT*dG*d[5mC]*d[5mC]*dT*dA*dA*dG*dT*dA*eT*eA*e[5mC]*e[5mC]*eT) [compound 323640] |  |  | 28 | 
323641 (antisense e[5mC]*e[5mC]*e[5mC]*eA*eT*dA*dT*dA*d[5mC]*dT*dT*dG*dG*dA*dA*eT*eG*eA*eA*e[5mC]) [compound 323641] |  |  | 88 | 
